Laboratory results: ChEMBL document CHEMBL1201862, “PubChem BioAssay data set” (2004)
Active and inactive are the calls of the source.

Experiments:
[1] = biological target: T1, Corticotropin-releasing factor receptor 2/Corticotropin-releasing factor-binding protein (Homo sapiens, UniProt P24387+Q13324); assay: activators of CRF receptor 2 with binding protein – uHTS hits, confirmation (AID 602473); type: functional; details: read-out: EC50_Mean
T1 sequence (Q13324 whole entry): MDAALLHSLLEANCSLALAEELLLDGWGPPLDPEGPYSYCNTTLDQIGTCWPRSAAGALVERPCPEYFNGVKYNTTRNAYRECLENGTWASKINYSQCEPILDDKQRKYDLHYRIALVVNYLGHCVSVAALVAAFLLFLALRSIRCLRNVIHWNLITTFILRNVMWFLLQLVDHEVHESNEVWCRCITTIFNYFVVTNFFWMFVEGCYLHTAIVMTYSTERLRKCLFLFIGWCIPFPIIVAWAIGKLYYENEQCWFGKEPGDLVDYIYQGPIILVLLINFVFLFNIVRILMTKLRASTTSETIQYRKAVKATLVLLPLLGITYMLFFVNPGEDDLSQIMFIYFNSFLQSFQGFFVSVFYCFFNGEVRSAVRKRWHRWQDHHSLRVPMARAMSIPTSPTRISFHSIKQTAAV
T1 sequence (P24387 whole entry): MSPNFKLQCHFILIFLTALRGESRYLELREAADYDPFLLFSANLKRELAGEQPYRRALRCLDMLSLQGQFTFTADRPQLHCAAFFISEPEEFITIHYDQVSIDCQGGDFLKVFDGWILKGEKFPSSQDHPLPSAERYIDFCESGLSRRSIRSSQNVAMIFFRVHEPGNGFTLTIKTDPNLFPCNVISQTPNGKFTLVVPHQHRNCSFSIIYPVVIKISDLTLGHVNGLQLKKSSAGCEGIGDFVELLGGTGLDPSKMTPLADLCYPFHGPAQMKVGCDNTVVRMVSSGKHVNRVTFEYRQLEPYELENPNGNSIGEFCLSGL

[2] = blockers of CRF-binding protein–CRF-R2 complex – cell-based, uHTS hits, 384-well, dose response (AID 651639); type: functional, Homo sapiens; details: read-out: IC50_Mean
[3] = biological target: T1, Corticotropin-releasing factor receptor 2/Corticotropin-releasing factor-binding protein; assay: Dose Response confirmation of uHTS hits for small molecule antagonists of the CRF-binding protein and CRF-R2 receptor complex.; type: functional; details: read-out: IC50_Mean
[4] = biological target: Nuclear receptor subfamily 5 group A member 2 (Homo sapiens, UniProt O00482); type: functional, cell-based;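 also: HEK293T cells transfected with LRH-1 and a StAR promoter luciferase reporter; potency for inhibitors that lower LRH-1 driven reporter light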
Nuclear receptor subfamily 5 group A member 2, sequence (O00482 whole entry): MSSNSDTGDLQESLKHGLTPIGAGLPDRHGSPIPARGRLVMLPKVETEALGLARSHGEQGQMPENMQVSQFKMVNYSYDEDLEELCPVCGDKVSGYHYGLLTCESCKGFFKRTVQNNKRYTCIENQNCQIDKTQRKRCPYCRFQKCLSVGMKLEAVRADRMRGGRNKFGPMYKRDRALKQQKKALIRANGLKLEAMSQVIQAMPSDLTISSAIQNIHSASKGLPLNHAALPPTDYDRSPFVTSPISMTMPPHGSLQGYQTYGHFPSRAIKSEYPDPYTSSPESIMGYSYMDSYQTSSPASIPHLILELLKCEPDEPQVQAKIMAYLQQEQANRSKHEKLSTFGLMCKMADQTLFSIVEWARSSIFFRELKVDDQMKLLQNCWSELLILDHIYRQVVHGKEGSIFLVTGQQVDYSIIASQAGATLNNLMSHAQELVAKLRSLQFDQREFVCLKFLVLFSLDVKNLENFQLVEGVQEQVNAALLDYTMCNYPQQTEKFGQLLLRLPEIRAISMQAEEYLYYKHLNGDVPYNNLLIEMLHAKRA

[5] = nonselective StAR promoter luciferase inhibitors – cell-based, luminescence, luciferase reporter, counter-screen for LRH-1 inverse agonist project, dose response (AID 651969); type: functional
Steroidogenic factor 1 = Steroidogenic factor 1 (Homo sapiens, UniProt Q13285); assay: Counterscreen for inverse agonists of the liver receptor homolog-1 (LRH-1; NR5A2): Luminescence-based cell-based high throughput dose response assay to identify inverse agonists of the Steroidogenic Factor 1 Nuclear Receptor (SF1; NR5A1).; type: functional
Steroidogenic factor 1, sequence (Q13285 whole entry): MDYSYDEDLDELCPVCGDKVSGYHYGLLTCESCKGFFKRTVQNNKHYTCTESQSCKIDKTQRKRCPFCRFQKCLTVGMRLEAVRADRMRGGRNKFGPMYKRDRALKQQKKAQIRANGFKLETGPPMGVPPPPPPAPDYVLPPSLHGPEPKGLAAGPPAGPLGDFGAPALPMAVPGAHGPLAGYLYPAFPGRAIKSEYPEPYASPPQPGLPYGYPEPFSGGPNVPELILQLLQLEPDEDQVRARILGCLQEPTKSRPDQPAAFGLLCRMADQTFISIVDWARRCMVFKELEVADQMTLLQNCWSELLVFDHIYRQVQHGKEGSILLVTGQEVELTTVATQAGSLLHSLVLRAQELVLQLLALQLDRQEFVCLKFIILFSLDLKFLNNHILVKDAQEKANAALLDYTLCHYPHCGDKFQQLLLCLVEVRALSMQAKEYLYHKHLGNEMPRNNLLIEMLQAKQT

[6] = biological target: T2, Sentrin-specific protease 8 (Homo sapiens, UniProt Q96LD8); type: functional
T2 sequence (Q96LD8 whole entry): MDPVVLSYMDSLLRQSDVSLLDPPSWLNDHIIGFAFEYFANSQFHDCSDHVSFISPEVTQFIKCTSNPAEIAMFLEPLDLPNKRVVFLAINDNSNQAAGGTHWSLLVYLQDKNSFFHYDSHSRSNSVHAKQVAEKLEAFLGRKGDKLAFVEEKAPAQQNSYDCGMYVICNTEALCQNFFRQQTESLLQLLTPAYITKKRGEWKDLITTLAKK

[7] = biological target: T2, Sentrin-specific protease 8; type: functional; remark: listed apart in the source
Prothrombin = Prothrombin (Bos taurus, UniProt P00735); assay: thrombin protease inhibitors – biochemical, fluorescence polarization, uHTS hits, dose response (AID 602369); type: functional
Genome polyprotein = Genome polyprotein (dengue virus type 2, UniProt P29990); assay: flavivirus cap methylation enzyme inhibition – biochemical, confirmation dose response, primary screen (AID 588689); type: functional
Genome polyprotein, sequence (P29990 2492-3391 limits assumed): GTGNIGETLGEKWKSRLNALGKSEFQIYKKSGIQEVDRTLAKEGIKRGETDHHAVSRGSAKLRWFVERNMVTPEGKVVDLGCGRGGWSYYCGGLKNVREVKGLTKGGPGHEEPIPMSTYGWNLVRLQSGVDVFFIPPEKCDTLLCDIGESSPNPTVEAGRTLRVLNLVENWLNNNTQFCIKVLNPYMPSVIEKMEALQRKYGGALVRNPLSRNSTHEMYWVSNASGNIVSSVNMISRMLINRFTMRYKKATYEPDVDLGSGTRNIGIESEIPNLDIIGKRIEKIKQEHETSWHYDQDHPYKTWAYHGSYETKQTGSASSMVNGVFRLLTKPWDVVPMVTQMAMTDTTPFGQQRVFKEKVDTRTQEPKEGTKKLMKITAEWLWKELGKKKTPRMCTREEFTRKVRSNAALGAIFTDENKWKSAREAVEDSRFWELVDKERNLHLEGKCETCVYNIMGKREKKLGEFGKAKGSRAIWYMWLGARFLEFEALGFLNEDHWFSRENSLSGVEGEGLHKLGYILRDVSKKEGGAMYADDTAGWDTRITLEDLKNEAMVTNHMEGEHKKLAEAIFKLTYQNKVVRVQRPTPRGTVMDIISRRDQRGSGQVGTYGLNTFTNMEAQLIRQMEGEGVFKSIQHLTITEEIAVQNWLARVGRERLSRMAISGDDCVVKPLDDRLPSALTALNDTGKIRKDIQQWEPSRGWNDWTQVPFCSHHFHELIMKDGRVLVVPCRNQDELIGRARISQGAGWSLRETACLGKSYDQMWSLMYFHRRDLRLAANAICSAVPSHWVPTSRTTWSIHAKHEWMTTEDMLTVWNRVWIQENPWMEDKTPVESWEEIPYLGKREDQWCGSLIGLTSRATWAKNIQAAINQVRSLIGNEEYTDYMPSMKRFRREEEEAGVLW

[8] = biological target: 26S proteasome non-ATPase regulatory subunit 14 (Homo sapiens, UniProt O00487); assay: inhibition of proteasome subunit RPN11 – biochemical, fluorescence polarization, uHTS hits, confirmation (AID 602368); type: functional
26S proteasome non-ATPase regulatory subunit 14, sequence (O00487 whole entry): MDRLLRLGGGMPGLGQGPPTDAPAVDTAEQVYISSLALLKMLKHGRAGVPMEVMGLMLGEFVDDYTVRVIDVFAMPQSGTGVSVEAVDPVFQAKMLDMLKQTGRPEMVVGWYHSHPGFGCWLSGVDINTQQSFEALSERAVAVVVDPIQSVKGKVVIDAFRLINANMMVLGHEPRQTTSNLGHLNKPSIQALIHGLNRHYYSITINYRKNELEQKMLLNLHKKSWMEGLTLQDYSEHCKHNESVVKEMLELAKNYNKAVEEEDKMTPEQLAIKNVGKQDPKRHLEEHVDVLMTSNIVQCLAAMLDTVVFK

Aminopeptidase N = biological target: T3, Aminopeptidase N (Plasmodium falciparum FcB1/Columbia, UniProt O96935); assay: malaria alanyl aminopeptidase activity blockers – biochemical, fluorogenic H-Leu-NHMec substrate, 1536-well (AID 1445); set-up: species or system Plasmodium falciparum 3D7, 3D7
T3 sequence (O96935 whole entry): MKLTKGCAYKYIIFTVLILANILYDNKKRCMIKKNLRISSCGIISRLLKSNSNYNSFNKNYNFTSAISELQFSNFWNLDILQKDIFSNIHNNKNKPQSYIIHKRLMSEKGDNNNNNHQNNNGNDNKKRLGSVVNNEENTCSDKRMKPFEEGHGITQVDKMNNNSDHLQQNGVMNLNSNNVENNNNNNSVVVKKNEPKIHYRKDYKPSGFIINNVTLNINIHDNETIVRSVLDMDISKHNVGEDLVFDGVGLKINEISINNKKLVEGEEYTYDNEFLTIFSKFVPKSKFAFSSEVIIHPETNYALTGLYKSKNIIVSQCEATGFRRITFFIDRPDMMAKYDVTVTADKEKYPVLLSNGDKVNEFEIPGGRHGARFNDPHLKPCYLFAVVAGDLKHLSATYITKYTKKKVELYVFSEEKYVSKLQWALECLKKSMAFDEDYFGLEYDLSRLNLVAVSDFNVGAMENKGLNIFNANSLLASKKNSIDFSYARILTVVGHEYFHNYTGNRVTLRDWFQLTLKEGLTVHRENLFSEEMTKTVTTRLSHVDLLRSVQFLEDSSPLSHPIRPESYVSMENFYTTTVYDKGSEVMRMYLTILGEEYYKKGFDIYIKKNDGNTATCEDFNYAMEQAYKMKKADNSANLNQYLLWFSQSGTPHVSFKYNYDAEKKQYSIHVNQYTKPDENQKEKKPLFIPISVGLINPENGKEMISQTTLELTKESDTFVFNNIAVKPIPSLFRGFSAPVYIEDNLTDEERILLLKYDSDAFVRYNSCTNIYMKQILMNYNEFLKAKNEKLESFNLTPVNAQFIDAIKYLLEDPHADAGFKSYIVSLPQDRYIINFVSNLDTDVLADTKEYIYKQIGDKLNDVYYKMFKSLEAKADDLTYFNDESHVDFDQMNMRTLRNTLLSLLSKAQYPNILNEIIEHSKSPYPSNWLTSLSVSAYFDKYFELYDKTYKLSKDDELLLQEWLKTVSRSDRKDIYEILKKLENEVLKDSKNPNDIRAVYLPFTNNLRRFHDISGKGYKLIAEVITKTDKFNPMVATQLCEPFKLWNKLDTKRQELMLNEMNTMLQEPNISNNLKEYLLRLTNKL

Large T antigen = Large T antigen (Simian virus 40, UniProt P03070); type: functional, Betapolyomavirus macacae;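 also: Confirmatory-stage PubChem screen for compounds that inhibit SV40 T antigen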
Large T antigen, sequence (P03070 whole entry): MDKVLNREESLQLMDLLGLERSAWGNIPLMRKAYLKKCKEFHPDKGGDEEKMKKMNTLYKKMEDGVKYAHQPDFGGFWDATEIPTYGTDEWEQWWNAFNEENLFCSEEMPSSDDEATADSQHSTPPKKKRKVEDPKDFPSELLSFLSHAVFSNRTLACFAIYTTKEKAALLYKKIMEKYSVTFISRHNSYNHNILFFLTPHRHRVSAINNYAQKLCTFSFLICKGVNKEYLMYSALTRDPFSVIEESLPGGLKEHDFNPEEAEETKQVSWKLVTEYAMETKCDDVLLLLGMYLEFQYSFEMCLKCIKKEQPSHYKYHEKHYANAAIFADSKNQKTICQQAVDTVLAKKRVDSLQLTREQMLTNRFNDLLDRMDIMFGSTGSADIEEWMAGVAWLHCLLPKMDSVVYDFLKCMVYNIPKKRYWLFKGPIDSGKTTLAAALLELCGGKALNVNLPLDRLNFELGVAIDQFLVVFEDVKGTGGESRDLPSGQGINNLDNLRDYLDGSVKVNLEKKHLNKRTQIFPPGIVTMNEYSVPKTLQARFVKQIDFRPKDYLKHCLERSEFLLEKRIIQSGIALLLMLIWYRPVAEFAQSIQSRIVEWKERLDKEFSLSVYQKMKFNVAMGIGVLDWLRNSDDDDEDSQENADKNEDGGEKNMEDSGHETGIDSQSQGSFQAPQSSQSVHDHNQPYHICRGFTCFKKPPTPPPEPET

[9] = biological target: T4, Rac GTPase-activating protein 1 (Homo sapiens, UniProt Q9H0H5); assay: blockers of MgcRacGAP-driven Rac1 GTP hydrolysis – biochemical, ADP Hunter fluorescence, primary and confirmatory, confirmation (AID 624330); type: functional
T4 sequence (Q9H0H5 whole entry): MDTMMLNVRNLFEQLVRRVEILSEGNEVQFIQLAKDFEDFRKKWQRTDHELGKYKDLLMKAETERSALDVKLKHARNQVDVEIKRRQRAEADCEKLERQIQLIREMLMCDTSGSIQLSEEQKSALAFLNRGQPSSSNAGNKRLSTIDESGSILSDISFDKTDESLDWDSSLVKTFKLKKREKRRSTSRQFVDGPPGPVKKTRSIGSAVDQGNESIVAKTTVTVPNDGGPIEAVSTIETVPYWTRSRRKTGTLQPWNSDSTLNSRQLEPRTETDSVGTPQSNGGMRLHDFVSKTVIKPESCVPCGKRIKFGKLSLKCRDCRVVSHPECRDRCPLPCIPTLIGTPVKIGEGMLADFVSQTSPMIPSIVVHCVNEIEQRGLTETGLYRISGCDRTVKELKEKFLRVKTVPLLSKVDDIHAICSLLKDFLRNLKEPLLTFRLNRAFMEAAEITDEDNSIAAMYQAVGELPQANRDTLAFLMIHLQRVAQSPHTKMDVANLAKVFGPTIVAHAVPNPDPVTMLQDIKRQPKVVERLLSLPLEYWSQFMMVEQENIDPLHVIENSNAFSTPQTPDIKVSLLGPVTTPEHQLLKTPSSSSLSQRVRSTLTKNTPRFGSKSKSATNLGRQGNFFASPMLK

[10] = biological target: 72 kDa type IV collagenase (Homo sapiens, UniProt P08253); assay: Dose Response validation of uHTS RPN11 inhibitor hits using a MMP-2 Fluorescence assay.; type: functional
72 kDa type IV collagenase, sequence (P08253 whole entry, the tested form may be a part): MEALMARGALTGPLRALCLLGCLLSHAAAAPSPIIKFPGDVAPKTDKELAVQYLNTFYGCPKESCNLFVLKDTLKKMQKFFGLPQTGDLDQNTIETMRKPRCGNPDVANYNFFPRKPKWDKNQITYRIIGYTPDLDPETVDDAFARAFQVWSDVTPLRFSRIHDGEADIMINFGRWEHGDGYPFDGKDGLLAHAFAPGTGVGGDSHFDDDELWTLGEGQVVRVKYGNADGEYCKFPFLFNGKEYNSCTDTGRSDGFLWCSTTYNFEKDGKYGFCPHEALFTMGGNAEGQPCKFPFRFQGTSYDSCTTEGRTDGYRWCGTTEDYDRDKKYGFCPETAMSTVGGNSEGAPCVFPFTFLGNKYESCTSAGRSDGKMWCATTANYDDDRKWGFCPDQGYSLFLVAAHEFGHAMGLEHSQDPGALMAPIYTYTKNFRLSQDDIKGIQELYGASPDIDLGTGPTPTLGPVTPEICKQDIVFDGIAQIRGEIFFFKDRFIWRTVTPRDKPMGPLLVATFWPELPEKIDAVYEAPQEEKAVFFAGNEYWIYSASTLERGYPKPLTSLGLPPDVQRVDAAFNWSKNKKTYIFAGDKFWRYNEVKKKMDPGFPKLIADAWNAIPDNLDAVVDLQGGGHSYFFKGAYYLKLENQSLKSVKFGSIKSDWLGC

[11] = biological target: T5, Carboxy-terminal domain RNA polymerase II polypeptide A small phosphatase 1 (Homo sapiens, UniProt Q9GZU7); assay: CTDSP1 inhibitors, concentration-response, biochemical, absorbance readout, ultra-high-throughput screen actives (AID 540297); type: functional
T5 sequence (Q9GZU7 whole entry): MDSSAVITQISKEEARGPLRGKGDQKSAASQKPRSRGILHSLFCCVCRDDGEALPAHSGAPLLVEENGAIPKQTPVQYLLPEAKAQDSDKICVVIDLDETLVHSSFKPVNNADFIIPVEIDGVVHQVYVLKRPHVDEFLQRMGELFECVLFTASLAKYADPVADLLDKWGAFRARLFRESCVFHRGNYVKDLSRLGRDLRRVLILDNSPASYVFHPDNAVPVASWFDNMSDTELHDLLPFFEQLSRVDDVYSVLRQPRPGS

[12] = Fluorescence-based cell-based high throughput dose response assay for inhibitors of the interaction of nucleotide-binding oligomerization domain containing 2 (NOD2) and the receptor-interacting serine-threonine kinase 2 (RIPK2).; type: functional; details: Homo sapiens

In the case of `O=C(Nc1nnc(S(=O)(=O)Nc2ccccc2)s1)c1ccccc1Cl`, the EC50 [1] is reported as > 53 µM (inactive), the IC50 [2] is reported as 7.38 µM (active) and the IC50 [3] is reported as < 0.368 µM (active).

For `O=C(COc1ccc2c3c(c(=O)oc2c1)CCCC3)NCCCN1CCOCC1`, the IC50 [4] was 35.9 µM (inactive), the IC50 [5] was 35.9 µM (inactive) and the IC50 (Steroidogenic factor 1) was 35.9 µM (inactive).

With `Cc1n[nH]c(O)c1C(c1c(C)n[nH]c1O)c1cn(C)c2ccccc12` the IC50 [6] was 11.2 µM (active) and the IC50 [7] was 11.9 µM (active).

In the case of `O=C(O)c1ccc(COc2ccccc2C=C2C(=O)c3ccccc3C2=O)cc1`, the IC50 (Prothrombin) is reported as > 100 µM (inactive), the EC50 [1] is reported as 10 µM (active) and the IC50 [2] is reported as 1.47 µM (active). The IC50 (Genome polyprotein) was 6.33 µM (active), the IC50 [8] was 17.1 µM (active) and the IC50 (Aminopeptidase N) was 74.9 µM (active). The IC50 (Large T antigen) was 35.2 µM (active), the IC50 [9] was 85.9 µM (active) and the IC50 [3] was < 0.368 µM (active). The IC50 [10] was > 100 µM (inactive) and the IC50 [11] was 5.86 µM (active).

With `O=C1/C(=C/c2ccccc2)CN(C(=O)CCN2CCOCC2)C/C1=C\c1ccccc1` the IC50 [12] was 6.29 µM (active).

In the case of `C[C@H](CO)N1C[C@H](C)[C@H](CN(C)Cc2ccncc2)Oc2cc(-c3ccccc3F)ccc2S1(=O)=O`, the IC50 [4] is reported as 1.33 µM (active), the IC50 [5] is reported as 15.5 µM (inactive) and the IC50 (Steroidogenic factor 1) is reported as 1.33 µM (active).
